Data published in patent US20020169111A1, “Reversal of multidrug resistance in human colon carcinoma cells” (American Cyanamid Comany, priority 1998, published 2002).
“And” between values parts separate entries of the source, which are not always exact repeats. Identical values can stand only once.

Key:
Format in all cases: cell-based, human
[1] = tested on: S1-M1-3.2 cells; experiment: Dose modifying factor of FTC (SRB, EC50 ratio); conditions: S1-M1 cells
Method: (§1) Cell survival was estimated after 3 days using the SRB assay. Cell survival was determined by the SRB assay and EC50 values were determined from toxicity curves. The dose modifying factor (DMF) is the ratio of EC50 values obtained in the absence and presence of reversal agent. Maximum DMF values (shown in parentheses) is the ratio of EC50 values of resistant and sensitive cells in the absence of the reversal agent. This value is obtained when resistance is reversed completely, and is the equivalent of the relative resistance.

[2] = tested on: S1 cells; experiment: Dose modifying factor of FTC (SRB, EC50 ratio)
Method: as §1

[3] = tested on: S1-B1-20 cells; experiment: Reversal of resistance in P-gp expressing cells, alone or with 21 μM bisantrene; parameters: Difference Score: unit not given here; conditions: for Per Cent Survival with 21 μM bisantrene / Per Cent Survival Alone / Difference Score: S1-B1-20 cells; for Difference Score: survival alone minus survival with 21 μM bisantrene
Method: To determine the specificity of FTC for non P-gp multidrug resistance, FTC was tested on S1-B1-20 cells which were selected for resistance to bisantrene and which express high levels of P-gp (Table 9)(Zhang, et al, Oncol. Res. 6291-301 (1994)). […] The 21 μM concentration of bisantrene is not inhibitory to the growth of the cells. Values shown are mean ± standard deviation from triplicate test wells.

[4] = tested on: MCF-7 cells; experiment: Dose modifying factor of FTC (SRB, EC50 ratio); conditions: for Dose modifying factor (5 μM FTC): MCF-7 (untransfected, Table 11)
Method: as §1
In order to determine the utility of FTC as a reversal agent in other multidrug resistant cell lines, FTC was tested in two breast cancer cell lines which show a multidrug resistant phenotype with no overexpression of P-gp or MRP.
Cell survival was estimated after 3 days using the SRB assay, and EC50 values were determined from cytotoxicity curves.

SMILES: COc1ccc2c3c([nH]c2c1)[C@H](C=C(C)C)N1C(=O)[C@@H]2CCCN2C(=O)[C@@H]1C3 [Fumitremorgin C]
- Dose modifying factor ([1]; 5 μM FTC with Doxorubicin, listed as FTC): 26 and 25.9
- Dose modifying factor ([1]; 5 μM FTC with Mitoxantrone): 93
- Dose modifying factor ([1]; 5 μM FTC with Paclitaxel): 1.1
- Dose modifying factor ([1]; 5 μM FTC with Topotecan): 24
- Dose modifying factor ([2]; 5 μM FTC with Doxorubicin): 1
- Dose modifying factor ([2]; 5 μM FTC with Mitoxantrone): 1
- Dose modifying factor ([2]; 5 μM FTC with Paclitaxel): 1.4
- Dose modifying factor ([2]; 5 μM FTC with Topotecan): 0.9
- Per Cent Survival with 21 μM bisantrene ([3]; drug 0.1 μM): 101 ± 1 Per Cent
- Per Cent Survival Alone ([3]; drug 0.1 μM alone): 99 ± 1 Per Cent
- Difference Score ([3]; drug 0.1 μM): −4
- Per Cent Survival with 21 μM bisantrene ([3]; drug 0.5 μM): 103 ± 1 Per Cent
- Per Cent Survival Alone ([3]; drug 0.5 μM alone): 99 ± 1 Per Cent
- Difference Score ([3]; drug 0.5 μM): −4
- Per Cent Survival with 21 μM bisantrene ([3]; drug 1 μM): 100 ± 0 Per Cent
- Per Cent Survival Alone ([3]; drug 1 μM alone): 98 ± 3 Per Cent
- Difference Score ([3]; drug 1 μM): −2
- Per Cent Survival with 21 μM bisantrene ([3]; drug 5 μM): 103 ± 2 Per Cent
- Per Cent Survival Alone ([3]; drug 5 μM alone): 101 ± 3 Per Cent
- Difference Score ([3]; drug 5 μM): −2
- Per Cent Survival with 21 μM bisantrene ([3]; drug 10 μM): 93 ± 1 Per Cent
- Per Cent Survival Alone ([3]; drug 10 μM alone): 88 ± 0 Per Cent
- Difference Score ([3]; drug 10 μM): −4
- Per Cent Survival with 21 μM bisantrene ([3]; drug 20 μM): 89 ± 1 Per Cent
- Per Cent Survival Alone ([3]; drug 20 μM alone): 85 ± 0 Per Cent
- Difference Score ([3]; drug 20 μM): −4
- Per Cent Survival with 21 μM bisantrene ([3]; drug 40 μM): 77 ± 2 Per Cent
- Per Cent Survival Alone ([3]; drug 40 μM alone): 83 ± 1 Per Cent
- Difference Score ([3]; drug 40 μM): 13
- Per Cent Survival with 21 μM bisantrene ([3]; drug 80 μM): 53 ± 5 Per Cent
- Per Cent Survival Alone ([3]; drug 80 μM alone): 35 ± 1 Per Cent
- Difference Score ([3]; drug 80 μM): −18
- reversal of resistance in P-gp positive S1-B1-20 cells (in words) ([3]; bisantrene-selected): did not reverse resistance
- Dose modifying factor ([4]; MCF 7 (row above MCF 7/AdVp), 5 μM FTC with Doxorubicin): 2.0
- Dose modifying factor ([4]; MCF 7 (row above MCF 7/AdVp), 5 μM FTC with Mitoxantrone): 7.5
- Dose modifying factor ([4]; MCF 7 (row above MCF 7/AdVp), 5 μM FTC with Paclitaxel): 1.0
- Dose modifying factor ([4]; MCF 7 (row above MCF 7/mtxR), 5 μM FTC with Doxorubicin): 1.0
- Dose modifying factor ([4]; MCF 7 (row above MCF 7/mtxR), 5 μM FTC with Mitoxantrone): 1.7
- Dose modifying factor ([4]; MCF 7 (row above MCF 7/mtxR), 5 μM FTC with Paclitaxel): 0.8
- Dose modifying factor (5 μM FTC) ([4]; with Doxorubicin): 1.0
- Dose modifying factor (5 μM FTC) ([4]; with Mitoxantrone): 2.5
- Dose modifying factor (5 μM FTC) ([4]; with Paclitaxel): 0.7
- Dose modifying factor (5 μM FTC) ([4]; with Topotecan): 5.6
- Reversal by FTC (fold), range over drugs ([4]; parental unselected MCF-7 cells): 0.8-1.7 fold
- reversal by FTC (fold), mitoxantrone and topotecan ([4]; untransfected MCF-7 cells, 5 μM FTC): 2.5-5.6 fold
